Measured values reported in patent US9926340B2, “NAD analogs and methods of using said NAD analogs in determining ribosylation of proteins with PARP mutants” (The Board of Regents of the University of Texas System, priority 2015, dated 2018).

System: HeLa cell nuclear extract proteins
Test: ADP-ribosylation of HeLa cell nuclear extract proteins by asPARPs 1, 2 or 3
Format: biochemical, human
Details: purified recombinant asPARPs 1, 2, or 3; 250 μM analog, 15 min
Experimental: HeLa cell nuclear extract preparation. HeLa Nuclear Extract was prepared essentially as described in Dignam et al., 1983. 5 L of HeLa S3 cells were grown in Spinner flasks to a density of 0.5×10^6 cells per milliliter and harvested by centrifugation at 4° C. for 10 minutes at 2000 RPM. Cell pellets were washed in 5 pelleted cell volumes of ice cold PBS and centrifuged 10 minutes at 2000 RPM. Cells were resuspended in 5 pelleted cell volumes of Buffer A (10 mM HEPES, pH 7.9, 1.5 mM MgCl2, 10 mM KCl, 0.5 mM DTT, 1 mM PMSF, 4 mM Benzamidine, 1 μM Aprotinin, 100 μM Leupeptin, 1 μM Pepstatin A) and incubated 10 minutes on ice to facilitate cell swelling and centrifuged at 4° C. for 10 minutes at 2000 RPM. Cells were resuspended in 2 pelleted cell volumes of Buffer A and dounced with a light pestle dounce homogenizer (Wheaton) to release nuclei. The nuclei were then pelleted by centrifugation at 4° C. for 10 minutes at 2000 RPM and the supernatant decanted. The nuclei were subsequently centrifuged at 4° C. for 20 minutes at 25,000 RCF to obtain a crude nuclear fraction. […]

C#CCCSc1nc2c(N)ncnc2n1[C@@H]1O[C@H](COP(=O)(O)OP(=O)(O)OC[C@H]2O[C@@H]([n+]3cccc(C(N)=O)c3)C(O)C2O)[C@H](O)C1O (stereo partly shown) [8-Bu(3-yne)T-NAD^+]
labeling of HeLa cell nuclear extract proteins: PARP-specific labeling of extract proteins
